Columns and labels:
HCV genotype 1b replicon = HCV genotype 1b replicon assay (Renilla luciferase readout); assay type: cell-based, hepatitis C virus; settings: for Genotype 1b: HCV genotype 1b replicon; for EC50: Hepatitis C virus, read-out: Genotype 1b
Excerpt: Assay 1: HCV Genotype 1b Replicon Assay
The HCV genotype 1b replicon cell line was obtained from Apath LLC (Brooklyn, N.Y.) (APC144; Huh7 cell background). This subgenomic replicon contains the N-terminus of the HCV core protein fused to the neomycin-resistance selectable marker. The EMCV IRES lies downstream and drives expression of humanized Renilla luciferase fused to the non-structural proteins NS3-NS5B. This cell line was used to determine compound potency using the luciferase activity readout as a measurement of compound inhibition of replicon levels.
Cells were grown at 37° C. in a 5% CO2 humidified incubator in DMEM (Invitrogen) with 10% FBS (HyClone), 1×NEAA (Invitrogen), 1× Pen-Strep (Invitrogen), and 500 μg/mL G418 (Invitrogen). On day 1 of the assay, cells were plated at 10,000 cells/well in white 96-well tissue culture plates (Costar) in 200 μL media lacking G418. Four hours later, once the cells have adhered, the media was removed and replaced with media (no G418) containing dose-responses of test compounds. Compounds were initially diluted in DMSO and then diluted another 200× in media to bring the final DMSO concentration down to 0.5%. The cells were incubated with test compounds for 48 hours. At the end of the incubation period, media and compound were removed from the plates and the luciferase activity was determined using Promega Renilla-Glo reagents.
To analyze the data, the luciferase activity was plotted vs. the compound concentration, and EC50 values were determined from a 4-parameter robust fit model with the GraphPad Prism software package (GraphPad Software, Inc., San Diego, Calif.). Results are expressed as the negative decadic logarithm of the EC50 value, pEC50.
Test compounds having a higher pEC50 value in this assay show greater inhibition of HCV genotype 1b replication.

HCV genotype 1a replicon = HCV genotype 1a replicon assay (NS3 protease activity readout); assay type: cell-based, hepatitis C virus; settings: for Genotype 1a: HCV genotype 1a replicon; for EC50: Hepatitis C virus, read-out: Genotype 1a, HCV genotype 1a replicon
Outline: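 Genotype 1a subgenomic replicon cells (APC89, Huh7.5) were treated with compound dose-responses in G418-free medium, 0.5% DMSO final, for 48 or 72 hours at 37° C. Lysate NS3/4a protease activity measured with 15 μM FRET substrate, 20 min at 37° C (ex 340/em 509 nm); EC50 by 4-parameter fit.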

| SMILES | Genotype 1b (HCV genotype 1b replicon) | Genotype 1a (HCV genotype 1a replicon) | EC50 (HCV genotype 1b replicon) [nM] | EC50 (HCV genotype 1a replicon) [nM] |
| --- | --- | --- | --- | --- |
| COC[C@H]1CN(c2ccc(NC(=O)c3cc(OC(F)(F)F)c(-c4ccc(-c5c[nH]c([C@@H]6C[C@H](C)CN6C(=O)[C@@H](NC(=O)OC)C6CCOCC6)n5)cc4)cc3Cl)cn2)CCN1C(=O)C(C)(C)C [24-4] | D (D represents pEC50>10 (EC50<0.1 nM)) | C (C represents pEC50 between and 9 and about 10, (EC50 between 1 nM and 0.1 nM)) | – | – |
| COC(=O)N[C@H](C(=O)N1C[C@@H](C)C[C@H]1c1nc(-c2ccc(-c3cc(F)c(NC(=O)c4ccc(N5C[C@H](C)N(C(=O)c6c[nH]cn6)C[C@H]5C)nc4)cc3OC(F)(F)F)cc2)c[nH]1)C(C)C [Example 1-14] | D (D represents pEC50>10 (EC50<0.1 nM)) | D (D represents pEC50>10 (EC50<0.1 nM)) | – | – |
| COC(=O)N[C@H](C(=O)N1C[C@@H](C)C[C@H]1c1nc(-c2ccc(-c3cc(Cl)c(NC(=O)c4ccc(N5CCN(C(=O)C(C)(C)C)C[C@H]5C)nc4)cc3OC(F)(F)F)cc2)c(CO)[nH]1)C1CCOCC1 [Example 20-2] | D (D represents pEC50>10 (EC50<0.1 nM)) | D (D represents pEC50>10 (EC50<0.1 nM)) | – | – |
| COC(=O)N[C@H](C(=O)N1C[C@@H](OC)C[C@H]1c1nc(-c2ccc(-c3ccc(C(=O)Nc4ccc(N5CCN(C(=O)C(C)(C)C)C[C@H]5C)nc4)cc3OC(F)(F)F)cc2)c[nH]1)C1CCOCC1 [Example 22-12] | D (D represents pEC50>10 (EC50<0.1 nM)) | D (D represents pEC50>10 (EC50<0.1 nM)) | – | – |
| COC(=O)N[C@H](C(=O)N1C[C@@H](C(N)=O)C[C@H]1c1nc(-c2ccc(-c3cc(Cl)c(NC(=O)c4ccc(N5CCN(C(=O)C(C)(C)CO)C[C@H]5C)nc4)cc3OC(F)(F)F)cc2)c[nH]1)C(C)C [Example 15-3] | – | – | < 0.1 | < 0.1 |
| COC(=O)N[C@H](C(=O)N1C[C@@H](C)C[C@H]1c1nc(-c2ccc(-c3cc(Cl)c(NC(=O)c4ccc(N5C[C@H](C)N(C(=O)c6c[nH]cn6)C[C@H]5C)nc4)cc3OC(F)(F)F)cc2)c[nH]1)C(C)C [Example 1-19] | D (D represents pEC50>10 (EC50<0.1 nM)) | D (D represents pEC50>10 (EC50<0.1 nM)) | – | – |
| CNC(=O)N1CCN(c2ccc(C(=O)Nc3cc(OC(F)(F)F)c(-c4ccc(-c5c[nH]c([C@@H]6C[C@H](C)CN6C(=O)[C@@H](NC(=O)OC)C(C)C)n5)cc4)cc3Cl)cn2)[C@H](C)C1 [Example 1-17] | D (D represents pEC50>10 (EC50<0.1 nM)) | D (D represents pEC50>10 (EC50<0.1 nM)) | – | – |
| COC(=O)NC(C(=O)N1CC(C)CC1c1nc(-c2ccc(-c3ccc(NC(=O)c4ccc(N5CCN(C(=O)C(C)(C)CO)CC5C)nc4)cc3OC(F)(F)F)cc2)c[nH]1)C(C)OC (centres unmarked) [Example 13-31] | D (D represents pEC50>10 (EC50<0.1 nM)) | D (D represents pEC50>10 (EC50<0.1 nM)) | – | – |
| COC(=O)N[C@H](C(=O)N1C[C@@H](C)C[C@H]1c1nc(-c2ccc(-c3cc(F)c(NC(=O)c4ccc(N5CCN(C(=O)C6CC6)C[C@H]5C)nc4)cc3OC(F)(F)F)cc2)c[nH]1)C(C)C [Example 1-3] | D (D represents pEC50>10 (EC50<0.1 nM)) | D (D represents pEC50>10 (EC50<0.1 nM)) | – | – |
| COC(=O)NC(C(=O)N1CC(C)CC1c1nc(-c2ccc(-c3ccc(NC(=O)c4ccc(N5CCN(C(=O)C(C)(C)CO)CC5C)nc4)cc3OC(F)(F)F)cc2)c[nH]1)C(C)O (centres unmarked) [Example 13-30] | D (D represents pEC50>10 (EC50<0.1 nM)) | D (D represents pEC50>10 (EC50<0.1 nM)) | – | – |
| CNC(=O)N1CCN(c2ccc(C(=O)Nc3ccc(-c4ccc(-c5c[nH]c([C@@H]6C[C@H](N(C)C)CN6C(=O)[C@@H](NC(=O)OC)C(C)C)n5)cc4)c(C)c3)cn2)[C@H](C)C1 [Example 2-5] | D (D represents pEC50>10 (EC50<0.1 nM)) | C (C represents pEC50 between and 9 and about 10, (EC50 between 1 nM and 0.1 nM)) | – | – |
| COC(=O)N[C@H](C(=O)N1C[C@@H](C)C[C@H]1c1nc(-c2ccc(-c3ccc(C(=O)Nc4ccc(N5C[C@H](C)N(C(=O)[C@H]6CCCN6C(=O)NC(C)C)C[C@H]5C)nc4)cc3OC(F)(F)F)cc2)c[nH]1)C(C)C [Example 4-20] | D (D represents pEC50>10 (EC50<0.1 nM)) | C (C represents pEC50 between and 9 and about 10, (EC50 between 1 nM and 0.1 nM)) | – | – |
| COC(=O)N[C@H](C(=O)N1C[C@@H](C)C[C@H]1c1nc(-c2ccc(-c3cc(Cl)c(NC(=O)c4ccc(N5CCN(C(=O)NC(C)(C)C)C[C@H]5C)nc4)cc3OC(F)(F)F)cc2)c[nH]1)C(C)C [Example 12-24] | – | – | < 0.1 | < 0.1 |
| COC(=O)N[C@H](C(=O)N1C[C@@H](OC)C[C@H]1c1nc(-c2ccc(-c3cc(Cl)c(NC(=O)c4ccc(N5CCN(C(=O)[C@H]6CC6(C)C)C[C@H]5C)nc4)cc3OC(F)(F)F)cc2)c[nH]1)C1CCOCC1 [Example 28-11] | D (D represents pEC50>10 (EC50<0.1 nM)) | D (D represents pEC50>10 (EC50<0.1 nM)) | – | – |
| COC(=O)N[C@H](C(=O)N1C[C@@H](C)C[C@H]1c1nc(-c2ccc(-c3cc(Cl)c(NC(=O)c4ccc(N5CCN(C(=O)C(C)(C)CO)C[C@H]5C)nc4)cc3OC(F)(F)F)cc2)c[nH]1)C1CCOCC1 [Example 13-19] | – | – | < 0.1 | < 0.1 |
| COC(=O)N[C@H](C(=O)N1C[C@@H](C)C[C@H]1c1nc(-c2ccc(-c3cc(Cl)c(NC(=O)c4ccc(N5CCN(C(=O)C(C)(C)C)C[C@H]5C)nc4)cc3C(F)(F)F)cc2)c[nH]1)C(C)C [Example 1-61] | D (D represents pEC50>10 (EC50<0.1 nM)) | D (D represents pEC50>10 (EC50<0.1 nM)) | – | – |
| COC(=O)N[C@H](C(=O)N1C[C@@H](C)C[C@H]1c1nc(-c2ccc(-c3cc(F)c(NC(=O)c4ccc(N5CCN(C(=O)C(C)(C)C)C[C@H]5C)nc4)cc3Cl)cc2)c[nH]1)C(C)C [Example 5-6] | – | – | < 0.1 | 0.1 to 1 |
| COC(=O)NC(C(=O)N1CC(OC)CC1c1nc(-c2ccc(-c3cc(F)c(NC(=O)c4ccc(N5CCN(C(=O)C(C)(C)C)CC5C)nc4)cc3OC(F)(F)F)cc2)c[nH]1)C(C)OC (centres unmarked) [Example 16-5] | D (D represents pEC50>10 (EC50<0.1 nM)) | D (D represents pEC50>10 (EC50<0.1 nM)) | – | – |
| COC(=O)N[C@H](C(=O)N1C[C@@H](C)C[C@H]1c1nc(-c2ccc(-c3cc(Cl)c(NC(=O)c4ccc(N5CCN(C(=O)C(C)(C)C)[C@H](C)C5)nc4)cc3OC(F)(F)F)cc2)c[nH]1)C1CCOCC1 [Example 20-6] | D (D represents pEC50>10 (EC50<0.1 nM)) | D (D represents pEC50>10 (EC50<0.1 nM)) | – | – |
| COC(=O)N[C@H](C(=O)N1C[C@@H](OC)C[C@H]1c1nc(-c2ccc(-c3cc(Cl)c(NC(=O)c4ccc(N5CCN(C(=O)[C@H]6CC6(C)C)C[C@H]5C)nc4)cc3OC(F)(F)F)cc2)c[nH]1)C(C)C [Example 27-1] | D (D represents pEC50>10 (EC50<0.1 nM)) | D (D represents pEC50>10 (EC50<0.1 nM)) | – | – |
| COC(=O)NC(C(=O)N1C[C@@H](C)C[C@H]1c1nc(-c2ccc(-c3cc(Cl)c(NC(=O)c4ccc(N5CCN(C(=O)C(C)(C)C)C[C@H]5C)nc4)cc3OC(F)(F)F)cc2)c[nH]1)C1CCCOC1 (some centres unmarked) [Example 13-38] | – | – | < 0.1 | < 0.1 |
| COC(=O)N[C@H](C(=O)N1C[C@@H](C)C[C@H]1c1nc(-c2ccc(-c3cc(Cl)c(NC(=O)c4ccc(N5CCN(C(=O)C67CC(CO)(C6)C7)C[C@H]5C)nc4)cc3OC(F)(F)F)cc2)c[nH]1)C(C)C [Example 12-50] | – | – | < 0.1 | < 0.1 |
